{"source": "patent US20240279205A1", "about": "“NOVEL BENZIMIDAZOLE DERIVATIVE” (Carna Biosciences, Inc., priority 2020, published 2024)", "note": "Where a name gives a salt, the structure may show the parent alone.", "data": [{"molecular_target": "T1, human STING (hSTING) (Homo sapiens, UniProt Q86WV6)", "T1 construct": "host or cells: HEK-Blue ISG cells (HEK293-derived SEAP reporter line)", "T1 sequence (Q86WV6 whole entry H232R)": "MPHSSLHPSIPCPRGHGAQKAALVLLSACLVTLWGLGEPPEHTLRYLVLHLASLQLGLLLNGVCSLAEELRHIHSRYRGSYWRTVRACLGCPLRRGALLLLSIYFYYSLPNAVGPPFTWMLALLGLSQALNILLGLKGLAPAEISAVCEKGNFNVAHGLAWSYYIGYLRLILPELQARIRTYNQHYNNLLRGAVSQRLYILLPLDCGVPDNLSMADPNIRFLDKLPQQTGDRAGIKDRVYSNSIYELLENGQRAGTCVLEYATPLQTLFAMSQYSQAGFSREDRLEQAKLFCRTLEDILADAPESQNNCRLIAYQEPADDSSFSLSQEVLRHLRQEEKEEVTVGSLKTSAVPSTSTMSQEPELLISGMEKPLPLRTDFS", "assay": "Inhibition test of intracellular human STING (hSTING) pathway using SEAP reporter cells (HEK-Blue ISG), stimulation with Compound 3", "type": "cell-based", "parameters": "hSTING inhibitory activity: scale not given here", "conditions": "Compound 3 10 nM stimulation, 21 hours", "description": "(§1) Inhibition test of intracellular human STING (hSTING) pathway using reporter cells\n(§2) Since STING activates the transcription factor IRF3 upon ligand stimulation, the activity of STING can be evaluated by a reporter assay using a secretory alkaline phosphatase (SEAP reporter) integrated downstream of an IRF-inducible promoter.\n(§3) That is, the hSTING inhibitory activity of the test compound was evaluated using HEK-Blue™MISG cells (manufactured by Invivogen, #hkb-isg-1) incorporating a SEAP reporter. Activation of hSTING was performed by stimulation with the small molecule ligand Compound 3 as described in the literature (Ramanjulu, J. M., et al., Nature. 2018, 564 (7736), 439-443). HEK-Blue™MISG cells were seeded in a 96-well plate and cultured overnight at 37° C. in a 5% CO2 incubator. To each well of this cell culture plate, a test compound solution adjusted to a final concentration of 0.1 to 10 µM of the test compound was added, cultured for 1 hour in a CO2 incubator, and then Compound 3 (final concentration 10 nM) was added and further cultured in a CO2 incubator for 21 hours. After collecting the culture supernatant of each well, the reporter activity was measured by color development reaction with alkaline phosphatase.\n(§4) The reporter activity of the test compound non-addition and Compound 3 addition group was set to 100%, and the reporter activity of the test compound non-addition and Compound 3 non-addition group was set to 0%. The IC50 value was determined by regression analysis of the inhibitory rate determined from the reporter activity at each compound concentration and the test compound concentration (logarithm).", "values": [{"smiles": "Cc1ccc2[nH]c(Nc3c[nH]c4ccc(Cl)nc34)nc2c1C", "note": "[Embodiment 85, N-(5-Chloro-1H-pyrrolo[3,2-b]pyridin-3-yl)-4,5-dimethyl-1H-benzo[d]imidazol-2-amine]", "hSTING inhibitory activity": "* *"}, {"smiles": "Clc1ccc2[nH]cc(Nc3nc4cc(-c5ccncc5)ccc4[nH]3)c2n1", "note": "[Embodiment 96, N-(5-Chloro-1H-pyrrolo[3,2-b]pyridin-3-yl)-5-(pyridin-4-yl)-1H-benzo[d]imidazol-2-amine]", "hSTING inhibitory activity": "* *"}, {"smiles": "Clc1ccc2[nH]cc(Nc3nc4cc(-c5cccc(CN6CCOCC6)c5)ccc4[nH]3)c2n1", "note": "[Embodiment 99, N-(5-Chloro-1H-pyrrolo[3,2-b]pyridin-3-yl)-5-[3-(morpholinomethyl)phenyl]-1H-benzo[d] imidazol-2-amine]", "hSTING inhibitory activity": "* *"}, {"smiles": "Clc1ccc2[nH]cc(Nc3nc4cc(C5=CCOCC5)ccc4[nH]3)c2n1", "note": "[Embodiment 105, N-(5-chloro-1H-pyrrolo[3,2-b]pyridin-3-yl)-5-(3,6-dihydro-2H-pyran-4-yl)-1H-benzo[d] imidazol-2-amine]", "hSTING inhibitory activity": "* *"}, {"smiles": "ClC(=CC1CC1)c1ccc2[nH]c(Nc3c[nH]c4ccc(Cl)nc34)nc2c1", "note": "[Embodiment 126, N-(5-chloro-1H-pyrrolo[3,2-b]pyridin-3-yl)-5-(1-chloro-2-cyclopropylvinyl)-1H-benzo[d] imidazole-2-amine]", "hSTING inhibitory activity": "* *"}, {"smiles": "CC=C(Cl)c1ccc2[nH]c(Nc3c[nH]c4ccc(Cl)nc34)nc2c1", "note": "[Embodiment 137, N-(5-Chloro-1H-pyrrolo[3,2-b]pyridin-3-yl)-5-(1-chloroprop-1-en-1-yl)-1H-benzo[d]imidazole-2-amine]", "hSTING inhibitory activity": "* * *"}]}, {"molecular_target": "T1, human STING (hSTING)", "assay": "Inhibition test of intracellular human STING (hSTING) pathway using SEAP reporter cells (HEK-Blue ISG), stimulation with Compound 3", "type": "cell-based", "parameters": "hSTING inhibitory activity: scale not given here", "conditions": "Compound 3 10 nM stimulation, 21 hours, read-out: hSTING inhibitory activity", "description": "as §1, §2, §3, §4", "units": {"IC50": "µM"}, "values": [{"smiles": "CN(C)Cc1ccccc1Oc1ccc2[nH]c(Nc3c[nH]c4ccc(Cl)nc34)nc2c1", "note": "[Embodiment 83, N-(5-chloro-1H-pyrrolo[3,2-b]pyridin-3-yl)-5-{2-[(dimethylamino)methyl]phenoxy}-1H-benzo [d]imidazole-2-amine formate]", "IC50": "≥ 10"}, {"smiles": "CCCCn1c(Nc2c[nH]c3ccc(Br)nc23)nc2cc(Oc3ccccc3)ccc21", "note": "[Embodiment 90, N-(5-bromo-1H-pyrrolo[3,2-b]pyridin-3-yl)-1-butyl-5-phenoxy-1H-benzo[d]imidazol-2-amine]", "IC50": "1 to 10"}, {"smiles": "COCCn1c(Nc2c[nH]c3ccc(Br)nc23)nc2cc(Oc3ccccc3)ccc21", "note": "[Embodiment 92, N-(5-bromo-1H-pyrrolo[3,2-b]pyridin-3-yl)-1-(2-methoxyethyl)-5-phenoxy-1H-benzo[d]imidazol-2-amine]", "IC50": "1 to 10"}, {"smiles": "Clc1ccc2[nH]cc(Nc3nc4cc(-c5cccnc5)ccc4[nH]3)c2n1", "note": "[Embodiment 97, N-(5-Chloro-1H-pyrrolo[3,2-b]pyridin-3-yl)-5-(pyridin-3-yl)-1H-benzo[d]imidazol-2-amine]", "IC50": "1 to 10"}, {"smiles": "Clc1ccc2[nH]cc(Nc3nc4cc(-c5ccc(CN6CCOCC6)cc5)ccc4[nH]3)c2n1", "note": "[Embodiment 98, N-(5-Chloro-1H-pyrrolo[3,2-b]pyridin-3-yl)-5-[4-(morpholinomethyl)phenyl]-1H-benzo[d] imidazol-2-amine]", "IC50": "≥ 10"}, {"smiles": "Cn1cc(-c2ccc3[nH]c(Nc4c[nH]c5ccc(Cl)nc45)nc3c2)cn1", "note": "[Embodiment 102, N-(5-chloro-1H-pyrrolo[3,2-b]pyridin-3-yl)-5-(1-methyl-1H-pyrazol-4-yl)-1H-benzo[d]imidazole-2-amine]", "IC50": "≥ 10"}, {"smiles": "C[Si](C)(C)C#Cc1ccc2[nH]cc(Nc3nc4cc(Oc5ccccc5)ccc4[nH]3)c2n1", "note": "[Embodiment 106, 5-phenoxy-N-{5-[(trimethylsilyl)ethynyl]-1H-pyrrolo[3,2-b]pyridin-3-yl}-1H-benzo[d]imidazol-2-amine]", "IC50": "1 to 10"}, {"smiles": "Cc1cnc2[nH]cc(Nc3nc4cc(Oc5ccccc5)ccc4[nH]3)c2c1", "note": "[Embodiment 107, N-(5-methyl-1H-pyrrolo[2,3-b]pyridin-3-yl)-5-phenoxy-1H-benzo[d]imidazol-2-amine]", "IC50": "≥ 10"}, {"smiles": "COCCn1c(Nc2c[nH]c3ccc(Cl)nc23)nc2cc(Cl)c(Cl)cc21", "note": "[Embodiment 110, 5,6-dichloro-N-(5-chloro-1H-pyrrolo[3,2-b]pyridin-3-yl)-1-(2-methoxyethyl)-1H-benzo[d] imidazole-2-amine]", "IC50": "1 to 10"}, {"smiles": "N#Cc1cccc2[nH]c(Nc3c[nH]c4ccc(Cl)nc34)nc12", "note": "[Embodiment 113, 2-[(5-Chloro-1H-pyrrolo[3,2-b]pyridin-3-yl)amino]-1H-benzo [d]imidazole-4-carbonitrile]", "IC50": "≥ 10"}, {"smiles": "CN1CCC(Oc2ccc3[nH]c(Nc4c[nH]c5ccc(Cl)nc45)nc3c2)CC1", "note": "[Embodiment 121, N-(5-Chloro-1H-pyrrolo[3,2-b]pyridin-3-yl)-5-[(1-methylpiveridin-4-yl)oxy]-1H-benzo[d]imidazole-2-amine]", "IC50": "1 to 10"}, {"smiles": "CN(C)C(=O)c1cccc2c(Nc3nc4cc(Oc5ccccc5)ccc4[nH]3)c[nH]c12", "note": "[Embodiment 122, N,N-dimethyl-3-[(5-phenoxy-1H-benzo[d]imidazol-2-yl)amino]-1H-indole-7-carboxamide formate]", "IC50": "1 to 10"}, {"smiles": "CC(C)n1c(Nc2c[nH]c3ccc(Cl)nc23)nc2cc(Cl)c(Cl)cc21", "note": "[Embodiment 132, 5,6-dichloro-N-(5-chloro-1H-pyrrolo[3,2-b]pyridin-3-yl)-1-isopropyl-1H-benzo[d]imidazol-2-amine]", "IC50": "1 to 10"}, {"smiles": "CN(C)CCn1c(Nc2c[nH]c3ccc(Cl)nc23)nc2ccc(Oc3ccccc3)cc21", "note": "[Embodiment 134, N-(5-Chloro-1H-pyrrolo[3,2-b]pyridin-3-yl)-1-[2-(dimethylamino)ethyl]-6-phenoxy-1H-benzo[d] imidazole-2-amine diformate]", "IC50": "≥ 10"}, {"smiles": "Clc1ccc2[nH]cc(Nc3nc4c5c(ccc4[nH]3)OCCO5)c2n1", "note": "[Embodiment 135, N-(5-chloro-1H-pyrrolo[3,2-b]pyridin-3-yl)-7,8-dihydro-3H-[1,4] dioxino[2′,3′:3, 4]benzo[1,2-d]imidazol-2-amine]", "IC50": "≥ 10"}, {"smiles": "Cn1c(Nc2c[nH]c3ccc(Cl)nc23)nc2cc(F)c(F)cc21", "note": "[Embodiment 138, N-(5-Chloro-1H-pyrrolo[3,2-b]pyridin-3-yl)-5,6-difluoro-1-methyl-1H-benzo[d]imidazol-2-amine]", "IC50": "≥ 10"}, {"smiles": "Clc1ccc2[nH]cc(Nc3nc4cc(OC5COC5)ccc4[nH]3)c2n1", "note": "[Embodiment 139, N-(5-Chloro-1H-pyrrolo[3,2-b]pyridin-3-yl)-5-(oxetan-3-yloxy)-1H-benzo[d]imidazol-2-amine]", "IC50": "≥ 10"}, {"smiles": "COCCOc1ccc2[nH]c(Nc3c[nH]c4ccc(Cl)nc34)nc2c1", "note": "[Embodiment 140, N-(5-Chloro-1H-pyrrolo[3,2-b]pyridin-3-yl)-5-(2-methoxyethoxy)-1H-benzo[d]imidazol-2-amine]", "IC50": "≥ 10"}, {"smiles": "Clc1ccc2[nH]cc(Nc3nc4cc5c(cc4[nH]3)OCCO5)c2n1", "note": "[Embodiment 141, N-(5-chloro-1H-pyrrolo[3,2-b]pyridin-3-yl)-6,7-dihydro-1H-[1,4] dioxino[2′,3′:4, 5]benzo[1,2-d]imidazol-2-amine]", "IC50": "1 to 10"}, {"smiles": "Clc1ccc2[nH]cc(Nc3nc4cc(OC5CCOCC5)ccc4[nH]3)c2n1", "note": "[Embodiment 142, N-(5-Chloro-1H-pyrrolo[3,2-b]pyridin-3-yl)-5-[(tetrahydro-2H-pyran-4-yl)oxy)-1H-benzo[d] imidazol-2-amine]", "IC50": "≥ 10"}]}]}
